According to paper PMC3914206:

How the values were obtained:
Type in all cases: binding
Settings in all cases: Compound Concentration 10 µM
panel of 442 kinases [1] = biological target: T1, panel of 442 kinases (Homo sapiens, UniProt O43353)
T1 construct: purchased KINOMEscan
Excerpt: (§1) We assessed the selectivity of members of this scaffold using the KINOMEscan methodology across a near comprehensive panel of 442 kinases [[18,27]].

panel of 442 kinases [2] = biological target: T2, panel of 442 kinases (Homo sapiens, UniProt P06239)
T2 construct: purchased KINOMEscan
T2 sequence (P06239 whole entry): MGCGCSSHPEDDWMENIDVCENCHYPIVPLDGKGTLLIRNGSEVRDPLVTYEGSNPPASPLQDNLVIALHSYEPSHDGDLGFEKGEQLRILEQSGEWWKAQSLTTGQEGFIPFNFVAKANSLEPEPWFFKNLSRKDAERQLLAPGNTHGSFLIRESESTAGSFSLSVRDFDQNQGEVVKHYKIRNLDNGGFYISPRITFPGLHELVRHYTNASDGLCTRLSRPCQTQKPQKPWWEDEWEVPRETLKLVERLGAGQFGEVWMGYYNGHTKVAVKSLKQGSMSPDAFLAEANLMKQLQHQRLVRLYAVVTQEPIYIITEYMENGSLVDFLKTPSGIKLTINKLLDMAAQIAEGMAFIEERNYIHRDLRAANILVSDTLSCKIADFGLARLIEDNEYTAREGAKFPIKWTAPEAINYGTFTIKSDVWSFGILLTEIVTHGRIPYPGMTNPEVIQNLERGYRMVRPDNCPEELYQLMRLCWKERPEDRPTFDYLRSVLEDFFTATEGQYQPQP
Excerpt: as §1

panel of 442 kinases [3] = biological target: T3, panel of 442 kinases (Homo sapiens, UniProt Q86YV6)
T3 construct: purchased KINOMEscan
T3 sequence (Q86YV6 1-388): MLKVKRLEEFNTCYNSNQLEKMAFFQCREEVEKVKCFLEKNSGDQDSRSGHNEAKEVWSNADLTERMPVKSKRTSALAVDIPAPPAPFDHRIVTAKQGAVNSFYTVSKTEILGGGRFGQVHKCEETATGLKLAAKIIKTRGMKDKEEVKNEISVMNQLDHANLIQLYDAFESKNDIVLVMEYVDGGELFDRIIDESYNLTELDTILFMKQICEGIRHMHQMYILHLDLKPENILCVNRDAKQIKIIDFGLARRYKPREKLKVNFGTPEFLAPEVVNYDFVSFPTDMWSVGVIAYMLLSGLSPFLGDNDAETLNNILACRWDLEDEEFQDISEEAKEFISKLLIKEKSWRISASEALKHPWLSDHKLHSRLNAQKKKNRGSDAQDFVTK
Excerpt: as §1

T1 sequence (O43353 whole entry): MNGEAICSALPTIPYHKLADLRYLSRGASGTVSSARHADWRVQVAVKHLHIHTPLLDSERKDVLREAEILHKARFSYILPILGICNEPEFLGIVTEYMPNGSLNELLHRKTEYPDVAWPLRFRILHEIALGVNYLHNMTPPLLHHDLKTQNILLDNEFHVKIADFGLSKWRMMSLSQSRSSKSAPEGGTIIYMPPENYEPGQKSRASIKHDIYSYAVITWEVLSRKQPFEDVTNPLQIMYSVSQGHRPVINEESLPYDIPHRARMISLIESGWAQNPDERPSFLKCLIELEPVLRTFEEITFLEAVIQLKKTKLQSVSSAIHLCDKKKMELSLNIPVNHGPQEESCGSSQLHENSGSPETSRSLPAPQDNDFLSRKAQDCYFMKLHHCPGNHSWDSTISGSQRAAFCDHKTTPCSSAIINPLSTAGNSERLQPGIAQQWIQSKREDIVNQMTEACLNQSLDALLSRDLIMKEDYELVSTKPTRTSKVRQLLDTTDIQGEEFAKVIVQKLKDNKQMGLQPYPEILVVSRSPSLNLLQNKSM

Compound	KINOMEscan: RIPK2 (panel of 442 kinases [1])	KINOMEscan: LCK (panel of 442 kinases [2])	KINOMEscan: MYLK4 (panel of 442 kinases [3])
COc1cc(C(=O)N2CCC(N3CCN(C)CC3)CC2)ccc1Nc1ncc2c(n1)N(C1CCCC1)c1ccccc1C(=O)N2C [Compound 25, 11-cyclopentyl-2-((2-methoxy-4-(4-(4-methylpiperazin-1-yl)piperidine-1-carbonyl)phenyl)amino)-5-methyl-5H-benzo[e]pyrimido[5,4-b][1,4]diazepin-6(11H)-one]	87	66	88
CCOc1cc(C(=O)N2CCC(N3CCN(C)CC3)CC2)ccc1Nc1ncc2c(n1)N(C1CCCC1)c1ccccc1C(=O)N2C [Compound 26]	100	100	100
COc1cc(C(=O)N2CCC(N3CCN(C)CC3)CC2)ccc1Nc1ncc2c(n1)N1CCc3cccc(c31)C(=O)N2C [Compound 24]	95	–	78
COc1cc(C(=O)N2CCC(N3CCN(C)CC3)CC2)ccc1Nc1ncc2c(n1)N(C)c1ccccc1C(=O)N2C [15 (LRRK2-IN-1)]	100	100	80
